Measured values as given in patent US11492361B2, “Compounds useful in HIV therapy” (GlaxoSmithKline Intellectual Property Development Limited, priority 2018, dated 2022).
Counter-ions that a name gives are not always drawn.

Tested on: Jurkat HIV-luciferase clones
Assay: Jurkat latency reversal assay
Type: cell-based
Conditions: Homo sapiens, Jurkat, 48 h
Procedure: Jurkat HIV-luciferase clones were maintained in RPMI medium 1640 (Gibco by Life Technologies) containing 10% (vol/vol) fetal bovine serum (SAFC/Sigma-Aldrich) and 25 units/mL penicillin, 25 units/mL streptomycin (Gibco by Life Technologies), and were split 1:4 every 3 to 4 days to maintain a cell density of ˜0.3 to 1 million cells/mL. The Jurkat clones were maintained with the addition of 500 nM EFV in the medium. Three Jurkat cell clones (C16, I15, and N6), each harboring one or two integrated HIV proviruses expressing the luciferase reporter gene, were added at equal amounts for a total of 5,000 cells per well to 384-well plates containing compound titrations. Dose-response testing was performed on compounds dissolved in dimethyl sulfoxide (DMSO, Fisher Scientific, Merelbeke, Belgium) dispensed in duplicate serial 3-fold, 14-point titrations using a D300e Digital Droplet Dispenser (Hewlett-Packard) to give final assay concentrations of 10 μM to 2.1 pM in 50 μL of medium at 0.5% DMSO (vol/vol) final concentration. Cells and compound were incubated at 37° C. for 48 hours, unless otherwise indicated, followed by the addition of 20 μL of Steady-Glo® Luciferase (Promega). Luminescence resulting from the induction of the virally expressed luciferase was measured using an EnVision 2102 Multilabel Plate Reader (Perkin Elmer). Dose-response relationships were analyzed with GraphPad PRISM 6 using a four-parameter logistic regression model to calculate the concentration of compound that gives half-maximal response (EC50) and the maximal percent activation compared to the vehicle control.

SMILES	EC50
CN[C@@H](C)C(=S)N[C@H]1CCS[C@H]2CC(C)(C)[C@@H](C(=O)N[C@H]3c4ccccc4C[C@H]3OCCOCCO[C@@H]3Cc4ccccc4[C@@H]3NC(=O)[C@H]3N4C(=O)[C@@H](NC(=S)[C@H](C)NC)CCS[C@H]4CC3(C)C)N2C1=O [compound 19, (4S,4′S,7S,7′S,9aS,9a′S)-N,N′-((1S,1′S,2R,2′R)-((oxybis(ethane-2,1-diyl))bis(oxy))bis(2,3-dihydro-1H-indene-2,1-diyl))bis(8,8-dimethyl-4-((S)-2-(methylamino)propanethioamido)-5-oxooctahydropyrrolo[2,1-b][1,3]thiazepine-7-carboxamide) dihydrochloride]	9.4 nM
CN[C@@H](C)C(=O)N[C@H]1CCS[C@H]2CC(C)(C)[C@@H](C(=O)N[C@H](COCCCCCCCCCCCCOC[C@@H](NC(=O)[C@H]3N4C(=O)[C@@H](NC(=O)[C@H](C)NC)CCS[C@H]4CC3(C)C)c3ccccc3)c3ccccc3)N2C1=O [compound 61, (4S,4′S,7S,7′S,9aS,9a′S)-N,N′-((1S,1′S)-(dodecane-1,12-diylbis(oxy))bis(1-phenylethane-2,1-diyl))bis(8,8-dimethyl-4-((S)-2-(methylamino)propanamido)-5-oxooctahydropyrrolo[2,1-b][1,3]thiazepine-7-carboxamide)]	11.8 nM
CN[C@@H](C)C(=O)N[C@H]1CCS[C@H]2CC(C)(C)[C@@H](C(=O)N[C@H](C(=O)NCC#CC#CCNC(=O)[C@@H](NC(=O)[C@H]3N4C(=O)[C@@H](NC(=S)[C@H](C)NC)CCS[C@H]4CC3(C)C)c3ccccc3)c3ccccc3)N2C1=O [compound 31, (4S,7S,9aS)-N-((S)-2-((6-((S)-2-((4S,7S,9aS)-8,8-dimethyl-4-((S)-2-(methylamino)propanamido)-5-oxooctahydropyrrolo[2,1-b][1,3]thiazepine-7-carboxamido)-2-phenylacetamido)hexa-2,4-diyn-1-yl)amino)-2-oxo-1-phenylethyl)-8,8-dimethyl-4-((S)-2-(methylamino)propanethioamido)-5-oxooctahydropyrrolo[2,1-b][1,3]thiazepine-7-carboxamide dihydrochloride]	25.8 nM
CN[C@@H](C)C(=O)N[C@H]1CCS[C@H]2CC(C)(C)[C@@H](C(=O)N[C@H]3c4ccccc4C[C@H]3C(=O)N3CCN(C(=O)[C@@H]4Cc5ccccc5[C@@H]4NC(=O)[C@H]4N5C(=O)[C@@H](NC(=O)[C@H](C)NC)CCS[C@H]5CC4(C)C)CC3)N2C1=O [compound 46, (4S,7S,9aS)-N-[(1R,2R)-2-{4-[(1R,2R)-1-[(4S,7S,9aS)-8,8-dimethyl-4-[(2S)-2-(methylamino)propanamido]-5-oxo-octahydropyrrolo[2,1-b][1,3]thiazepine-7-amido]-2,3-dihydro-1H-indene-2-carbonyl]piperazine-1-carbonyl}-2,3-dihydro-1H-inden-1-yl]-8,8-dimethyl-4-[(2S)-2-(methylamino)propanamido]-5-oxo-octahydropyrrolo[2,1-b][1,3]thiazepine-7-carboxamide]	127 nM
CN[C@@H](C)C(=O)N[C@H]1CCS[C@H]2CC(C)(C)[C@@H](C(=O)N[C@H](COCc3ccc4ccc(COC[C@@H](NC(=O)[C@H]5N6C(=O)[C@@H](NC(=O)[C@H](C)NC)CCS[C@H]6CC5(C)C)c5ccccc5)cc4c3)c3ccccc3)N2C1=O [compound 56, (4S,4′S,7S,7′S,9aS,9a′S)-N,N′-((1S,1′S)-((naphthalene-2,7-diylbis(methylene))bis(oxy))bis(1-phenylethane-2,1-diyl))bis(8,8-dimethyl-4-((S)-2-(methylamino)propanamido)-5-oxooctahydropyrrolo[2,1-b][1,3]thiazepine-7-carboxamide)]	2.9 nM
CN[C@@H](C)C(=S)N[C@H]1CCS[C@H]2CC(C)(C)[C@@H](C(=O)N[C@H](C(=O)NCc3ccc(CNC(=O)[C@@H](NC(=O)[C@H]4N5C(=O)[C@@H](NC(=S)[C@H](C)NC)CCS[C@H]5CC4(C)C)c4ccccc4)cc3)c3ccccc3)N2C1=O [compound 25, (4S,4′S,7S,7′S,9aS,9a′S)-N,N′-((1S,1′S)-((1,4-phenylenebis(methylene))bis(azanediyl))bis(2-oxo-1-phenylethane-2,1-diyl))bis(8,8-dimethyl-4-((S)-2-(methylamino)propanethioamido)-5-oxooctahydropyrrolo[2,1-b][1,3]thiazepine-7-carboxamide) dihydrochloride]	61.8 nM
CN[C@@H](C)C(=O)N[C@H]1CCS[C@H]2CC(C)(C)[C@@H](C(=O)N[C@H]3c4ccccc4C[C@H]3OCCCOCCCO[C@@H]3Cc4ccccc4[C@@H]3NC(=O)[C@H]3N4C(=O)[C@@H](NC(=O)[C@H](C)NC)CCS[C@H]4CC3(C)C)N2C1=O [compound 51, (4S,7S,9aS)-N-[(1S,2R)-2-[3-(3-{[(1S,2R)-1-[(4S,7S,9aS)-8,8-dimethyl-4-[(2S)-2-(methylamino)propanamido]-5-oxo-octahydropyrrolo[2,1-b][1,3]thiazepine-7-amido]-2,3-dihydro-1H-inden-2-yl]oxy}propoxy)propoxy]-2,3-dihydro-1H-inden-1-yl]-8,8-dimethyl-4-[(2S)-2-(methylamino)propanamido]-5-oxo-octahydropyrrolo[2,1-b][1,3]thiazepine-7-carboxamide]	24 nM
CN[C@@H](C)C(=S)N[C@H]1CCS[C@H]2CC(C)(C)[C@@H](C(=O)N[C@H](COCCCn3cc(COC[C@@H](NC(=O)[C@H]4N5C(=O)[C@@H](NC(=S)[C@H](C)NC)CCS[C@H]5CC4(C)C)c4ccccc4)nn3)c3ccccc3)N2C1=O [compound 53, (4S,7S,9aS)-N-[(1S)-2-[3-(4-{[(2S)-2-{[(4S,7S,9aS)-8,8-dimethyl-4-[(2S)-2-(methylamino)propanethioamido]-5-oxo-octahydropyrrolo[2,1-b][1,3]thiazepin-7-yl]formamido}-2-phenylethoxy]methyl}-1H-1,2,3-triazol-1-yl)propoxy]-1-phenylethyl]-8,8-dimethyl-4-[(2S)-2-(methylamino)propanethioamido]-5-oxo-octahydropyrrolo[2,1-b][1,3]thiazepine-7-carboxamide]	178 nM
CN[C@@H](C)C(=S)N[C@H]1CCS[C@H]2CC(C)(C)[C@@H](C(=O)N[C@H](COCC#CC#CCOC[C@@H](NC(=O)[C@H]3N4C(=O)[C@@H](NC(=S)[C@H](C)NC)CCS[C@H]4CC3(C)C)c3ccccc3)c3ccccc3)N2C1=O [compound 35, (4S,4′S,7S,7′S,9aS,9a′S)-N,N′-((1S,1′S)-(hexa-2,4-diyne-1,6-diylbis(oxy))bis(1-phenylethane-2,1-diyl))bis(8,8-dimethyl-4-((S)-2-(methylamino)propanethioamido)-5-oxooctahydropyrrolo[2,1-b][1,3]thiazepine-7-carboxamide)]	9 nM
CN[C@@H](C)C(=O)N[C@H]1CCS[C@H]2CC(C)(C)[C@@H](C(=O)N[C@H](C(=O)N3CCN(C(=O)[C@@H](NC(=O)[C@H]4N5C(=O)[C@@H](NC(=O)[C@H](C)NC)CCS[C@H]5CC4(C)C)c4ccccc4)CC3)c3ccccc3)N2C1=O [compound 26, (4S,4′S,7S,7′S,9aS,9a′S)-N,N′-((1S,1′S)-piperazine-1,4-diylbis(2-oxo-1-phenylethane-2,1-diyl))bis(8,8-dimethyl-4-((S)-2-(methylamino)propanamido)-5-oxooctahydropyrrolo[2,1-b][1,3]thiazepine-7-carboxamide) dihydrochloride]	69.1 nM
CN[C@@H](C)C(=O)N[C@H]1CCS[C@H]2CC(C)(C)[C@@H](C(=O)N[C@H](COCCOCCOC[C@@H](NC(=O)[C@H]3N4C(=O)[C@@H](NC(=O)[C@H](C)NC)CCS[C@H]4CC3(C)C)c3ccccc3)c3ccccc3)N2C1=O [compound 38, (4S,4′S,7S,7′S,9aS,9a′S)-N,N′-((1S,1′S)-((oxybis(ethane-2,1-diyl))bis(oxy))bis(1-phenylethane-2,1-diyl))bis(8,8-dimethyl-4-((S)-2-(methylamino)propanamido)-5-oxooctahydropyrrolo[2,1-b][1,3]thiazepine-7-carboxamide)]	50.7 nM
CN[C@@H](C)C(=S)N[C@H]1CCS[C@H]2CC(C)(C)[C@@H](C(=O)N[C@H]3c4ccccc4C[C@H]3OCCCCCCO[C@@H]3Cc4ccccc4[C@@H]3NC(=O)[C@H]3N4C(=O)[C@@H](NC(=S)[C@H](C)NC)CCS[C@H]4CC3(C)C)N2C1=O [compound 21, (4S,4′S,7S,7′S,9aS,9a′S)-N,N′-((1S,1′S,2R,2′R)-(hexane-1,6-diylbis(oxy))bis(2,3-dihydro-1H-indene-2,1-diyl))bis(8,8-dimethyl-4-((S)-2-(methylamino)propanethioamido)-5-oxooctahydropyrrolo[2,1-b][1,3]thiazepine-7-carboxamide)]	13 nM
CN[C@@H](C)C(=O)N[C@H]1CCS[C@H]2CC(C)(C)[C@@H](C(=O)Nc3ccccc3CCc3ccccc3NC(=O)[C@H]3N4C(=O)[C@@H](NC(=O)[C@H](C)NC)CCS[C@H]4CC3(C)C)N2C1=O [compound 3, (4S,4′S,7S,7′S,9aS,9a′S)-N,N′-(ethane-1,2-diylbis(2,1-phenylene))bis(8,8-dimethyl-4-((S)-2-(methylamino)propanamido)-5-oxooctahydropyrrolo[2,1-b][1,3]thiazepine-7-carboxamide) dihydrochloride]	80.5 nM
